Assay results published in ChEMBL document CHEMBL1201862, “PubChem BioAssay data set” (2004).
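Cultured in 96-well plates, cells were exposed to test compound for 48 hours across five concentrations. At the GI50, growth is halved.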 Active and inactive are the calls of the source. No stated cut-off is given here; in the data, active = GI50 up to about 1.1 µM and inactive = higher.

Legend:
Test in all cases: NCI-60 cell line screen, 48 h
786-0 = system: 786-0
A498 = system: A498
A549 = system: A549
ACHN = system: ACHN
CAKI-1 = system: CAKI-1
CCRF-CEM = system: CCRF-CEM
COLO 205 = system: COLO 205
DMS-114 = system: DMS-114
DMS-273 = system: DMS-273
EKVX = system: EKVX
HCC 2998 = system: HCC 2998
HCT-116 = system: HCT-116
HCT-15 = system: HCT-15
HL-60 = system: HL-60
HOP-18 = system: HOP-18
HOP-92 = system: HOP-92
HT-29 = system: HT-29
IGROV-1 = system: IGROV-1
K562 = system: K562
KM-20L2 = system: KM-20L2
KM12 = system: KM12
LOX IMVI = system: LOX IMVI
LXFL 529 = system: LXFL 529
M14 = system: M14
M19-MEL = system: M19-MEL
MOLT-4 = system: MOLT-4
Malme-3M = system: Malme-3M
NCI-H23 = system: NCI-H23
NCI-H460 = system: NCI-H460
NCI-H522 = system: NCI-H522
OVCAR-3 = system: OVCAR-3
OVCAR-4 = system: OVCAR-4
OVCAR-5 = system: OVCAR-5
OVCAR-8 = system: OVCAR-8
SF-268 = system: SF-268
SF-295 = system: SF-295
SK-MEL-28 = system: SK-MEL-28
SK-MEL-2 = system: SK-MEL-2
SK-MEL-5 = system: SK-MEL-5
SK-OV-3 = system: SK-OV-3
SN12C = system: SN12C
SNB-19 = system: SNB-19
SNB-75 = system: SNB-75
SR = system: SR
SW-620 = system: SW-620
TK-10 = system: TK-10
U-251 = system: U-251
UACC-257 = system: UACC-257
UACC-62 = system: UACC-62
UO-31 = system: UO-31
XF498 = system: XF498
DLD-1 = system: DLD-1
HOP-62 = system: HOP-62
NCI-H226 = system: NCI-H226
RPMI-8226 = system: RPMI-8226
RXF 393 = system: RXF 393
SF-539 = system: SF-539
SNB-78 = system: SNB-78

`O=C1NC2OC(C(O)CO)C(O)C2O1` (configuration not stated) was tested, and the GI50 (786-0) was > 100 µM (inactive), the GI50 (A498) was > 100 µM (inactive) and the GI50 (A549) was > 100 µM (inactive). For the same molecule, the GI50 (ACHN) was > 100 µM (inactive), the GI50 (CAKI-1) was > 100 µM (inactive) and the GI50 (CCRF-CEM) was > 100 µM (inactive). The GI50 (COLO 205) was > 100 µM (inactive), the GI50 (DMS-114) was > 100 µM (inactive) and the GI50 (DMS-273) was > 100 µM (inactive). The GI50 (EKVX) was > 100 µM (inactive), the GI50 (HCC 2998) was > 100 µM (inactive) and the GI50 (HCT-116) was > 100 µM (inactive). The GI50 (HCT-15) was over 100 µM, the GI50 (HL-60) was > 100 µM (inactive) and the GI50 (HOP-18) was > 100 µM (inactive). For the same molecule, the GI50 (HOP-92) was > 100 µM (inactive), the GI50 (HT-29) was > 100 µM (inactive) and the GI50 (IGROV-1) was > 100 µM (inactive). The GI50 (K562) was > 100 µM (inactive), the GI50 (KM-20L2) was > 100 µM (inactive) and the GI50 (KM12) was > 100 µM (inactive). The GI50 (LOX IMVI) was > 100 µM (inactive), the GI50 (LXFL 529) was > 100 µM (inactive) and the GI50 (M14) was > 100 µM (inactive). The GI50 (M19-MEL) was > 100 µM (inactive), the GI50 (MOLT-4) was > 100 µM (inactive) and the GI50 (Malme-3M) was > 100 µM (inactive). For the same molecule, the GI50 (NCI-H23) was > 100 µM (inactive), the GI50 (NCI-H460) was > 100 µM (inactive) and the GI50 (NCI-H522) was > 100 µM (inactive). For the same molecule, the GI50 (OVCAR-3) was > 100 µM (inactive), the GI50 (OVCAR-4) was > 100 µM (inactive) and the GI50 (OVCAR-5) was > 100 µM (inactive). The GI50 (OVCAR-8) was > 100 µM (inactive), the GI50 (SF-268) was > 100 µM (inactive) and the GI50 (SF-295) was > 100 µM (inactive). For the same molecule, the GI50 (SK-MEL-28) was > 100 µM (inactive), the GI50 (SK-MEL-2) was > 100 µM (inactive) and the GI50 (SK-MEL-5) was > 100 µM (inactive). For the same molecule, the GI50 (SK-OV-3) was > 100 µM (inactive), the GI50 (SN12C) was > 100 µM (inactive) and the GI50 (SNB-19) was > 100 µM (inactive). The GI50 (SNB-75) was > 100 µM (inactive), the GI50 (SR) was > 100 µM (inactive) and the GI50 (SW-620) was > 100 µM (inactive). For the same molecule, the GI50 (TK-10) was > 100 µM (inactive), the GI50 (U-251) was > 100 µM (inactive) and the GI50 (UACC-257) was > 100 µM (inactive). The GI50 (UACC-62) was > 100 µM (inactive), the GI50 (UO-31) was > 100 µM (inactive) and the GI50 (XF498) was > 100 µM (inactive).
In the case of `Cc1cc(NS(=O)(=O)c2ccc(NC(=O)COC(=O)c3cccc4c(=O)c5ccccc5[nH]c34)cc2)no1`, the GI50 (786-0) is reported as > 100 µM (inactive), the GI50 (A498) is reported as > 100 µM (inactive) and the GI50 (A549) is reported as > 100 µM (inactive). The GI50 (ACHN) was > 100 µM (inactive), the GI50 (CAKI-1) was > 100 µM (inactive) and the GI50 (CCRF-CEM) was > 100 µM (inactive). The GI50 (COLO 205) was > 100 µM (inactive), the GI50 (DLD-1) was > 100 µM (inactive) and the GI50 (DMS-114) was > 100 µM (inactive). The GI50 (DMS-273) was > 100 µM (inactive), the GI50 (EKVX) was > 100 µM (inactive) and the GI50 (HCC 2998) was > 100 µM (inactive). The GI50 (HCT-116) was > 100 µM (inactive), the GI50 (HCT-15) was over 100 µM and the GI50 (HL-60) was > 100 µM (inactive). For the same molecule, the GI50 (HOP-62) was > 100 µM (inactive), the GI50 (HOP-92) was > 100 µM (inactive) and the GI50 (HT-29) was > 100 µM (inactive). The GI50 (IGROV-1) was > 100 µM (inactive), the GI50 (K562) was > 100 µM (inactive) and the GI50 (KM-20L2) was > 100 µM (inactive). The GI50 (KM12) was > 100 µM (inactive), the GI50 (LOX IMVI) was > 100 µM (inactive) and the GI50 (LXFL 529) was > 100 µM (inactive). For the same molecule, the GI50 (M14) was > 100 µM (inactive), the GI50 (M19-MEL) was > 100 µM (inactive) and the GI50 (MOLT-4) was > 100 µM (inactive). For the same molecule, the GI50 (Malme-3M) was > 100 µM (inactive), the GI50 (NCI-H226) was > 100 µM (inactive) and the GI50 (NCI-H23) was > 100 µM (inactive). For the same molecule, the GI50 (NCI-H460) was > 100 µM (inactive), the GI50 (NCI-H522) was > 100 µM (inactive) and the GI50 (OVCAR-3) was > 100 µM (inactive). For the same molecule, the GI50 (OVCAR-4) was > 100 µM (inactive), the GI50 (OVCAR-5) was > 100 µM (inactive) and the GI50 (OVCAR-8) was > 100 µM (inactive). The GI50 (RPMI-8226) was > 100 µM (inactive), the GI50 (RXF 393) was > 100 µM (inactive) and the GI50 (SF-268) was > 100 µM (inactive). For the same molecule, the GI50 (SF-295) was > 100 µM (inactive), the GI50 (SF-539) was > 100 µM (inactive) and the GI50 (SK-MEL-28) was > 100 µM (inactive). The GI50 (SK-MEL-5) was > 100 µM (inactive), the GI50 (SK-OV-3) was > 100 µM (inactive) and the GI50 (SN12C) was > 100 µM (inactive). The GI50 (SNB-19) was > 100 µM (inactive), the GI50 (SNB-75) was > 100 µM (inactive) and the GI50 (SNB-78) was > 100 µM (inactive). For the same molecule, the GI50 (SR) was > 100 µM (inactive), the GI50 (SW-620) was > 100 µM (inactive) and the GI50 (TK-10) was > 100 µM (inactive). For the same molecule, the GI50 (U-251) was > 100 µM (inactive), the GI50 (UACC-257) was > 100 µM (inactive) and the GI50 (UACC-62) was > 100 µM (inactive). The GI50 (UO-31) was > 100 µM (inactive) and the GI50 (XF498) was > 100 µM (inactive).
